Data taken from ChEMBL document CHEMBL5620423, “Highly-tumor-targeted PAD4 inhibitors with PBA modification inhibit tumors in vivo by specifically inhibiting the PAD4-H3cit-NETs pathway in neutrophils” (Eur J Med Chem, 2023).
Blank lines part the entries; values can stand above or below the compound they belong to. Calls of active or inactive are those of the source. No cut-off for these calls is given here.

Tests used:
[1] = test system: 4T1; assay: Cytotoxicity against mouse 4T1 cells assessed as reduction in cell viability measured after 48 hrs by MTT assay; details: 4T1, 48 h
[2] = test system: Sarcoma-180; assay: Antitumor activity against Sarcoma-180 mouse model assessed as inhibition of tumor growth at 10 umol/kg; type: functional
[3] = test system: Sarcoma-180; assay: Antitumor activity against Sarcoma-180 mouse model assessed as tumor weight at 10 umol/kg (reference value: 1.65 +/-0.2 gms); type: functional; details: dose 10 µmol/kg
[4] = test system: 4T1; assay: Anti-metastatic activity against mouse 4T1 cells xenografted in BALB/c mouse assessed as reduction in number of lung metastatic tumor nodules at 10 umol/kg, iv for 21 days; type: functional, organism-based; details: dose 10.0 µmol/kg, time 21.0 day
[5] = test system: 4T1; assay: Antitumor activity against mouse 4T1 cells xenografted in BALB/c mouse assessed as reduction in tumor volume at 10 umol/kg, iv for 21 days; type: functional, organism-based; details: dose 10.0 µmol/kg, time 21.0 day
[6] = Toxicity in BALB/c mouse xenografted with mouse 4T1 cells assessed as decrease in body weight at 10 umol/kg, iv measured after 9 to 15 days; type: organism-based; details: in vivo, time 9-15 day, dose 10 µmol/kg
[7] = Nephrotoxicity in BALB/c mouse xenografted with mouse 4T1 cells assessed as reduction in serum BUN level at 10 umol/kg, iv for 21 days; type: toxicity, organism-based; details: in vivo, 504 h, dose 10 µmol/kg, time 21 day
[8] = test system: 4T1; assay: Antitumor activity against mouse 4T1 cells xenografted in BALB/c mouse assessed as reduction in tumor weight at 10 umol/kg, iv for 21 days; type: functional, organism-based; details: dose 10.0 µmol/kg, time 21.0 day
[9] = biological target: Protein-arginine deiminase type-4 (Homo sapiens, UniProt Q9UM07); assay: Inhibition of PAD4 (unknown origin) using BAEE as substrate by colorimetric analysis
[10] = Nephrotoxicity in BALB/c mouse xenografted with mouse 4T1 cells assessed as […] in serum creatinine level at 10 umol/kg, iv for 21 days; type: toxicity, organism-based; details: in vivo, 504 h, dose 10 µmol/kg, time 21 day
[11] = biological target: Protein-arginine deiminase type-4 (Mus musculus) (UniProt Q9Z183); assay: Inhibition of PAD4 in mouse bone marrow neutrophils assessed as reduction in H3 cit expression by measuring red filamentous histone structure at 50 uM measured after 48 hrs by Hoechst33342 staining based confocal laser scanning microscopy; type: cell-based; details: Neutrophil
[12] = Hepatotoxicity in BALB/c mouse xenografted with mouse 4T1 cells assessed as reduction in serum ALT level at 10 umol/kg, iv for 21 days; type: toxicity, organism-based; details: in vivo, 504 h, dose 10 µmol/kg, time 21 day
[13] = Drug uptake in mouse 4T1 cells assessed as increase in green fluorescence intensity at 50 uM measured for 24 hrs flow cytometry; type: ADME, cell-based; details: 4t1, 24 h
[14] = Nephrotoxicity in BALB/c mouse xenografted with mouse 4T1 cells assessed as serum BUN level at 2 to 10 umol/kg, iv for 21 days; type: toxicity, organism-based; details: in vivo, 504 h, dose 2-10 µmol/kg, time 21 day
[15] = Drug uptake in mouse 4T1 cells assessed as drug localization in cytoplasm at 50 uM measured after 48 hrs by Hoechst33342 staining based confocal laser scanning microscopy; type: ADME, cell-based; details: 4t1, 48 h
[16] = Toxicity in BALB/c mouse xenografted with mouse 4T1 cells assessed as decrease in body weight at 2 to 10 umol/kg, iv measured after 9 to 15 days; type: organism-based; details: in vivo, dose lower 2 µmol/kg, time lower 9 day, dose upper 10 µmol/kg, time upper 15 day
[17] = test system: 4T1; assay: Cytotoxicity against mouse 4T1 cells assessed as effect on cell viability at 3.125 to 100 uM measured after 48 hrs by MTT assay; type: functional, cell-based; details: dose 3.125-100 µM
[18] = Drug uptake in human HL7702 cells assessed as green fluorescence intensity at 50 uM measured after 48 hrs by Hoechst33342 staining based confocal laser microscopy; type: ADME, cell-based; details: l02, 48 h
[19] = Nephrotoxicity in BALB/c mouse xenografted with mouse 4T1 cells assessed as serum creatinine level at 2 to 10 umol/kg, iv for 21 days; type: toxicity, organism-based; details: in vivo, 504 h, dose 2-10 µmol/kg, time 21 day
[20] = Toxicity in BALB/c mouse xenografted with mouse 4T1 cells assessed as spleen morphological changes at 10 umol/kg, iv for 21 days by Hematoxylin-Eosin staining based analysis; type: organism-based; details: in vivo, 504 h, dose 10 µmol/kg, time 21 day
[21] = test system: 4T1; assay: Anti-metastatic activity against mouse 4T1 cells assessed as reduction in inflammatory cell infiltration in lungs at 5 umol/kg, iv for 21 days by Hematoxylin-Eosin staining; type: functional, organism-based; details: dose 5.0 µmol/kg, time 21.0 day
[22] = Toxicity in BALB/c mouse xenografted with mouse 4T1 cells assessed as kidney morphological changes at 10 umol/kg, iv for 21 days by Hematoxylin-Eosin staining based analysis; type: organism-based; details: in vivo, 504 h, dose 10 µmol/kg, time 21 day
[23] = test system: 4T1; assay: Antitumor activity against mouse 4T1 cells xenografted in BALB/c mouse assessed as reduction in tumor volume at 2 to 10 umol/kg, iv for 21 days; type: functional, organism-based; details: dose 2-10 µmol/kg, time 21.0 day
[24] = biological target: Protein-arginine deiminase type-4 (Mus musculus) (UniProt Q9Z183); assay: Inhibition of PAD4 in mouse bone marrow neutrophils assessed as reduction in citrullinated histone level at 100 uM measured after 48 hrs by Hoechst33342 staining based confocal laser scanning microscopy; type: cell-based; details: Neutrophil
[25] = test system: 4T1; assay: Induction of cell morphological changes in mouse 4T1 cells assessed as rounded tumor cells at 50 uM measured after 48 hrs by scanning electron microscopy; type: functional, cell-based
[26] = Drug uptake in mouse bone marrow neutrophils assessed as drug localization in nucleus at 50 uM measured after 48 hrs by Hoechst33342 staining based confocal laser scanning microscopy; type: ADME, cell-based; details: neutrophil
[27] = test system: Mus musculus; assay: Immunomodulatory activity in iv dosed BALB/c mouse xenografted with mouse 4T1 cells assessed as decrease in proportion of aged neutrophils (CD194hi|CD62Llo) in tumor tissues administered for 21 days by CyTOF analysis; type: functional, organism-based; details: time 21.0 day
[28] = test system: 4T1; assay: Anti-metastatic activity against mouse 4T1 cells assessed as reduction in neutrophil extranuclear traps formation by measuring decrease in Ly6G-labeled neutrophils in tumor at 10 umol/kg, iv for 21 days by immunofluorescence analysis; type: functional, organism-based; details: dose 10.0 µmol/kg, time 21.0 day
[29] = Toxicity in BALB/c mouse xenografted with mouse 4T1 cells assessed as liver morphological changes at 10 umol/kg, iv for 21 days by Hematoxylin-Eosin staining based analysis; type: organism-based; details: in vivo, 504 h, dose 10 µmol/kg, time 21 day
[30] = test system: 4T1; assay: Anti-metastatic activity against mouse 4T1 cells assessed as reduction in tumor cell lesions in lungs at 2 umol/kg, iv for 21 days by Hematoxylin-Eosin staining; type: functional, organism-based; details: dose 2.0 µmol/kg, time 21.0 day
[31] = test system: Mus musculus; assay: Immunomodulatory activity in iv dosed BALB/c mouse xenografted with mouse 4T1 cells assessed as macrophage polarization by measuring increase in proportion of M1 macrophages administered for 21 days by CyTOF analysis; type: functional, organism-based; details: time 21.0 day
[32] = Hepatotoxicity in BALB/c mouse xenografted with mouse 4T1 cells assessed as serum AST level at 2 to 10 umol/kg, iv for 21 days; type: toxicity, organism-based; details: in vivo, 504 h, dose 2-10 µmol/kg, time 21 day
[33] = test system: 4T1; assay: Anti-metastatic activity against mouse 4T1 cells assessed as reduction in neutrophil extranuclear traps formation by measuring decrease in H3cit positivity in tumor at 10 umol/kg, iv for 21 days by immunofluorescence analysis; type: functional, organism-based; details: dose 10.0 µmol/kg, time 21.0 day
[34] = test system: 4T1; assay: Anti-metastatic activity against mouse 4T1 cells assessed as reduction in tumor cell lesions in lungs at 10 umol/kg, iv for 21 days by Hematoxylin-Eosin staining; type: functional, organism-based; details: dose 10.0 µmol/kg, time 21.0 day
[35] = Toxicity in BALB/c mouse xenografted with mouse 4T1 cells assessed as heart morphological changes at 10 umol/kg, iv for 21 days by Hematoxylin-Eosin staining based analysis; type: organism-based; details: in vivo, 504 h, dose 10 µmol/kg, time 21 day
[36] = test system: 4T1; assay: Induction of cell morphological changes in mouse 4T1 cells assessed as reduction in pseudopodia on cell surface at 50 uM measured after 48 hrs by scanning electron microscopy; type: functional, cell-based
[37] = Drug uptake in mouse 4T1 cells assessed as layer of green fluorescence around the cell membrane at 50 uM measured after 48 hrs by Hoechst33342 staining based confocal laser microscopy; type: ADME; details: 4t1, 48 h
[38] = Hepatotoxicity in BALB/c mouse xenografted with mouse 4T1 cells assessed as serum ALT level at 2 to 10 umol/kg, iv for 21 days; type: toxicity, organism-based; details: in vivo, 504 h, dose 2-10 µmol/kg, time 21 day
[39] = test system: 4T1; assay: Anti-metastatic activity against mouse 4T1 cells xenografted in BALB/c mouse assessed as reduction in number of lung metastatic tumor nodules at 5 to 10 umol/kg, iv for 21 days; type: functional, organism-based; details: dose 5-10 µmol/kg, time 21.0 day
[40] = biological target: Protein-arginine deiminase type-4 (Mus musculus) (UniProt Q9Z183); assay: Inhibition of PAD4 in mouse 4T1 cells assessed as reduction in citrullinated histone level at 100 uM measured after 48 hrs by Hoechst33342 staining based confocal laser scanning microscopy; type: cell-based
[41] = test system: Lewis lung carcinoma; assay: Cytotoxicity against mouse Lewis lung carcinoma cells assessed as effect on cell viability at 3.125 to 100 uM measured after 48 hrs by MTT assay; type: functional, cell-based; details: dose 3.125-100 µM
[42] = test system: Mus musculus; assay: Immunomodulatory activity in iv dosed BALB/c mouse xenografted with mouse 4T1 cells assessed as increase in normal neutrophils in tumor tissues administered for 21 days by CyTOF analysis; type: functional, organism-based; details: time 21.0 day
[43] = test system: Mus musculus; assay: Immunomodulatory activity in iv dosed BALB/c mouse xenografted with mouse 4T1 cells assessed as macrophage polarization by measuring proportion of M2 macrophages administered for 21 days by CyTOF analysis; type: functional, organism-based; details: time 21.0 day
[44] = test system: L02; assay: Cytotoxicity against human HL7702 cells assessed as effect on cell viability at 3.125 to 100 uM measured after 48 hrs by MTT assay; type: toxicity, cell-based; details: l02, 48 h, dose 3.125-100 µM
[45] = test system: 4T1; assay: Anti-metastatic activity against mouse 4T1 cells assessed as reduction in tumor cell lesions in lungs at 5 umol/kg, iv for 21 days by Hematoxylin-Eosin staining; type: functional, organism-based; details: dose 5.0 µmol/kg, time 21.0 day
[46] = test system: 4T1; assay: Induction of cell morphological changes in mouse 4T1 cells assessed as increase in number of cells with shrank mitochondria measured after 48 hrs by transmission electron microscopy; type: functional, cell-based

Chain of Protein-arginine deiminase type-4 (Mus musculus) (Q9Z183 whole entry): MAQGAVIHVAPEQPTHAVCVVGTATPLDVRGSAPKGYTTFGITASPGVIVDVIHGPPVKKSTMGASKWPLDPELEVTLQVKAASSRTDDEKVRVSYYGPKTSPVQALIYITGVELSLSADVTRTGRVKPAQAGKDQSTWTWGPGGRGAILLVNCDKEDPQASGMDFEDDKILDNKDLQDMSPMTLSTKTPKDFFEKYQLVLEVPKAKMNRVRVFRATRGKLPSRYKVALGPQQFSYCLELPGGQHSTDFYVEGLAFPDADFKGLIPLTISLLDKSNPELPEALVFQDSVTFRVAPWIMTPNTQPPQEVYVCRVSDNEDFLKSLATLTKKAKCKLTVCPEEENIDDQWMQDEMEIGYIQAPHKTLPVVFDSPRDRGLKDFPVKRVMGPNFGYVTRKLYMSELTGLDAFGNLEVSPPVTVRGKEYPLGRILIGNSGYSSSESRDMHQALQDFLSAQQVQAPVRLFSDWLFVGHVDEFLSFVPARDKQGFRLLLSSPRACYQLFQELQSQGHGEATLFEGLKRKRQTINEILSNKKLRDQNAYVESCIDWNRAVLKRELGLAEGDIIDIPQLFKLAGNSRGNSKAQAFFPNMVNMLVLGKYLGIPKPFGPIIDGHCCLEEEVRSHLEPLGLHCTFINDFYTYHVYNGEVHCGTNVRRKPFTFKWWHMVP
Chain of Protein-arginine deiminase type-4 (Q9UM07 whole entry): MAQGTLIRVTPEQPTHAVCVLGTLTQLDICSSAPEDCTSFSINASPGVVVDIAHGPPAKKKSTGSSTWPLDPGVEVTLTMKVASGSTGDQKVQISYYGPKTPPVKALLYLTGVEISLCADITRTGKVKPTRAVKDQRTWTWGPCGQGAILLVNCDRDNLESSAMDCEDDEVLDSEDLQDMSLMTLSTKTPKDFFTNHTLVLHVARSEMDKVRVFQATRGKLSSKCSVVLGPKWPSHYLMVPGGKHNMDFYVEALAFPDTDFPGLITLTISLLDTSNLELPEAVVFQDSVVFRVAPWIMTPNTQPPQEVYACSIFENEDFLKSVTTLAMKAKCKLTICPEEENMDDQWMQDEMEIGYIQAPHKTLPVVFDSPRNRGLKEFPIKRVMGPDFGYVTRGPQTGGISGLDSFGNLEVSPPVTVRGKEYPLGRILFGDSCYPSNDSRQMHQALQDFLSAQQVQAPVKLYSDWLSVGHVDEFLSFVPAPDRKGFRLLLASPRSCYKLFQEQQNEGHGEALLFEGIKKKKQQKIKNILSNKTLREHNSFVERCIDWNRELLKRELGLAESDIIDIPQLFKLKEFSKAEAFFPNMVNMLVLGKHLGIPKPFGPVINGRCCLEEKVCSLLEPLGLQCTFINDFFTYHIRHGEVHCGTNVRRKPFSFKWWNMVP

SMILES: N=C(CCl)NCCC[C@H](NC(=O)c1ccc(B(O)O)cc1)C(=O)NCc1ccccc1
IC50 [1]: > 100 µM
inhibition in vivo at 10 µmol/kg [2]: 40.3%
Activity [3]: 0.98 g

SMILES: N=C(CCl)NCCC[C@H](NC(=O)c1cc([N+](=O)[O-])c2nonc2c1)C(=O)NCc1ccccc1B(O)O
IC50 [1]: > 100 µM
inhibition in vivo at 10 µmol/kg [2]: 45.7%
Activity [3]: 0.89 g

SMILES: N=C(CCl)NCCC[C@H](NC(=O)c1cc(F)cc(B(O)O)c1)C(=O)NCc1ccccc1
IC50 [1]: > 100 µM
inhibition in vivo at 10 µmol/kg [2]: 38.7%
Activity [3]: 1.01 g

SMILES: N=C(CCl)NCCC[C@H](NC(=O)c1cc(B(O)O)ccc1F)C(=O)NCc1ccccc1
IC50 [1]: > 100 µM
inhibition in vivo at 10 µmol/kg [2]: 30.8%
Activity [3]: 1.14 g

IC50 [9]: 2.86 µM
inhibition [11]: Active
SMILES: CN(C)c1ccc2cc(C(=O)N[C@@H](CCCNC(=N)CCl)C(=O)NCc3ccccc3)ccc2c1
Activity [4]: Active
Activity [5]: Active
Activity [6]: Toxic
Activity [7]: Toxic
IC50 [1]: 11.9 µM
Activity [8]: Active
Activity [10]: Toxic
inhibition in vivo at 10 µmol/kg [2]: 42.7%
Activity [3]: 0.94 g
Activity [12]: Toxic

Drug uptake [13]: Active
Drug uptake [15]: Active
Drug uptake [18]: Not Active
inhibition [24]: Active
Drug uptake [26]: Active
Drug uptake [37]: Active
inhibition [40]: Active
inhibition [11]: Active
SMILES: N=C(CCl)NCCC[C@H](NC(=O)c1cc([N+](=O)[O-])c2nonc2c1)C(=O)NCc1cccc(B(O)O)c1
Activity [14]: Non-Toxic
Activity [16]: Non-Toxic
Activity [17]: inactive
Activity [19]: Non-Toxic
Activity [20]: Non-Toxic
Activity [21]: inactive
Activity [22]: Non-Toxic
Activity [23]: Active
Activity [25]: Active
Activity [27]: Active
Activity [28]: Active
Activity [29]: Non-Toxic
Activity [30]: inactive
Activity [31]: Active
Activity [32]: Non-Toxic
Activity [33]: Active
Activity [34]: Active
Activity [35]: Non-Toxic
Activity [36]: Active
IC50 [1]: > 100 µM
Activity [38]: Non-Toxic
Activity [39]: Active
Activity [8]: Active
inhibition in vivo at 10 µmol/kg [2]: 49.2%
Activity [41]: inactive
Activity [42]: Active
Activity [3]: 0.84 g
Activity [43]: inactive
Activity [44]: Non-Toxic
Activity [45]: Active
Activity [46]: Active
